This passage reports IC50 results from patent publication US6703388B2, “Nitrogen-containing tricyclic compounds and drugs containing the same” (Eisai Co., Ltd., priority 1996, dated 2004).

Where two headings read alike, the source gives them in different places.

The subject of one assay is RBL-2H3 cells. Briefly: Inhibition of serotonin liberation from IgE-sensitized RBL-2H3 cells after antigen stimulation. It is filed as cell-based, rat. The source says:
IgE-sensitized RBL-2H3 cells (i.e., a cell line originating in rat cells) release and produce not only histamine and serotonin but also cytokines such as TNF α and prostaglandins which are inflammatory mediators after stimulation with IgE sepecific antibody. In this experimental system, inhibitory effects on various mediators release were examined by using serotonin as an indication.
The cells were beforehand labeled with [^3H]-labeled serotonin and, at the same time, sensitized with the IgE antibody. After incubating with the compounds of the present invention, the cells were stimulated with the specific antigen. Then the inhibitory activity of each compound was calculated from the amount of the [^3H]-labeled serotonin thus liberated into the medium and the amount of [^3H]-labeled serotonin liberated when no compound of the present invention was added.

For the next assay, the system named is human basophils. Nature of the assay: Inhibition of mediator (histamine, peptide leukotriene) liberation from human basophils stimulated with mite antigen. To be noted: enzyme immunoassay. It is filed as cell-based. How it is done:
6 ml of 6% dextran (for separating leukocytes, having a high molecular weight) was added to 20 ml of heparinized blood. After stirring well, the resulting mixture was allowed to stand at 37° C. for 30 min and thus erythrocytes were precipitated. The upper layer was taken up and phosphate buffered saline (D-PBS) was added thereto followed by centrifugation at 185 g for 8 minutes to give a crude leukocyte fraction. These cells were subjected to hypotonic hematolysis and then suspended in D-PBS(+) containing 0.1%-BSA. The resulting suspension was used in the subsequent experiment as the leukocyte fraction containing basophils. 0.4 ml of this cell suspension was preliminarily heated to 37° C. for 5 min and then 0.05 ml of a specimen solution was added thereto followed by a pretreatment at 37° C. for 15 min. Next, 0.05 ml of a mite antigen solution was added thereto to induce an antigen-antibody reaction. After 10 min, the reaction was ceased by ice-cooling. Then the reaction mixture was centrifuged at 185 g for 10 min and histamine and peptide leukotrienes in the resulting supernatant were determined by using enzyme immunoassay kits. From the results of the assay, the activities of the acridone derivatives of inhibiting the liberation of histamine and peptide leukotriene were determined.

Setting [1] is: Rattus norvegicus, [3H]-serotonin release, IgE-sensitized RBL-2H3 cells, antigen stimulation, read-out: IC50 (μM) in serotonin liberation from RBL-2H3 cells.
[2] abbreviates: histamine, read-out: IC50 (μM) in mediator liberation from human basophils: histamine.
Where [3] appears, read: peptide leukotriene, read-out: IC50 (μM) in mediator liberation from human basophils: leukotriene.
[4] abbreviates: Rattus norvegicus, RBL-2H3, read-out: IC50 (μM) in serotonin liberation from RBL-2H3 cells.

For the compound `Cc1ccc2c(c1C)N(CCCNCc1ccccc1O)c1ccccc1[S+]2[O-]` (stereo not drawn) [Example 23], the IC50 with RBL-2H3 cells (setting [1]) was 2 µM; in the assay with human basophils (setting [2]) it was 10 to 30 µM; with human basophils (setting [3]), 10 to 30 µM.
With `Cc1ccc2c(c1C)N(CCCNCc1cccc(O)c1)c1ccccc1[S+]2[O-]` (stereo not drawn) [Example 24], the figures for the IC50 in the assay with RBL-2H3 cells (setting [1]), in the assay on human basophils (setting [2]) and in the assay on human basophils (setting [3]) were 3 µM, 10 to 30 µM and 10 to 30 µM, respectively.
`Cc1ccc2c(c1C)N(CCCNCc1ccc(O)cc1)c1ccccc1[S+]2[O-]` (stereo not drawn) [Example 25]: the figures for the IC50 in the assay with RBL-2H3 cells (setting [1]), in the assay with human basophils (setting [2]) and in the assay with human basophils (setting [3]) were 3 µM, 30 µM and 10 to 30 µM, respectively.
Regarding `Cc1ccc2c(c1C)N(CCCNCc1cccc(C)c1O)c1ccccc1[S+]2[O-]` (stereo not drawn) [Example 26], the IC50 in the assay with RBL-2H3 cells (setting [1]) is 2 µM; in the assay on human basophils (setting [2]), less than 10 µM; in the assay on human basophils (setting [3]) it was less than 10 µM.
With `COc1cccc(CNCCCN2c3ccccc3[S+]([O-])c3ccc(C)c(C)c32)c1O` (stereo not drawn) [Example 27], the IC50 was 3 µM in the assay with RBL-2H3 cells (setting [1]), 30 to 100 µM in the assay on human basophils (setting [2]) and 10 to 30 µM in the assay on human basophils (setting [3]).
For the compound `Cc1ccc2c(c1C)N(CCCN(CC(=O)O)Cc1ccccc1O)c1ccccc1[S+]2[O-]` (stereo not drawn) [Example 135], in the assay with RBL-2H3 cells (setting [1]), the IC50 is 2 µM.
For `Cc1ccc2c(c1C)N(CCNCc1cc(C)c(O)c(C)c1)c1ccccc1[S+]2[O-]` (stereo not drawn) [Example 148], the IC50 with RBL-2H3 cells (setting [1]) worked out at 8 µM.
On the same count and under the same terms, the value for `COc1cc(CNCCN2c3ccccc3[S+]([O-])c3ccc(C)c(C)c32)cc(OC)c1O` (stereo not drawn) [Example 149] was 8 µM.
Still for that read-out and setting: the result for `Cc1ccc2c(c1C)N(CCNCc1ccc(Cl)c(O)c1Cl)c1ccccc1[S+]2[O-]` (stereo not drawn) [Example 153] reads 6 µM; that for `COCOc1cccnc1CNCCN1c2ccccc2[S+]([O-])c2ccc(C)c(C)c21` (stereo not drawn) [Example 160], 2 µM.
On the same count and under the same terms, the result for `Cc1ccc2c(c1C)N(CCCN(C)Cc1cc(Cl)cc(Cl)c1O)c1ccccc1[S+]2[O-]` (stereo not drawn) [Example 172] reads 3 µM; that for `Cc1ccc2c(c1C)N(CCCN(C)Cc1ccccc1O)c1cc(Cl)ccc1[S+]2[O-]` (stereo not drawn) [Example 186], 10 µM; that for `Cc1ccc2c(c1C)N(CCN1CCN(Cc3ccccc3)CC1)c1ccccc1[S+]2[O-]` (stereo not drawn) [Example 191, 1,2-Dimethyl-10-[2-(4-benzylpiperazin-1-yl)ethyl]-phenothiazine-5-oxide], 3 µM.
`Cc1ccc2c(c1C)N(CCN1CCC(O)(c3ccccc3)CC1)c1ccccc1[S+]2[O-]` (stereo not drawn) [Example 192]: the IC50 in the assay on RBL-2H3 cells (setting [4]) was 5 µM.
Consider `Cc1ccc2c(c1C)N(CCNc1ccccc1O)c1ccccc1[S+]2[O-]` (stereo not drawn) [Example 194], for which the IC50 in the assay with RBL-2H3 cells (setting [1]) is 10 µM.
On the same count and under the same terms, the result for `Cc1ccc2c(c1C)N(CCCN)c1cc(Br)ccc1S2(=O)=O` [Example 197] reads 8 µM.
In the case of `Cc1ccc2c(c1C)N(CCN1CCC(O)(c3ccccc3)CC1)c1ccccc1S2(=O)=O` [Example 199], the IC50 in the assay with RBL-2H3 cells (setting [4]) stood at 10 µM.
For the compound `C=C1c2ccccc2N(CCCNCc2ccccc2)c2c1ccc(C)c2C` [Example 206, 3,4-Dimethyl-9-methylene-10-(3-benzylaminopropyl)acridan], in the assay on RBL-2H3 cells (setting [1]), the IC50 came to 15 µM.
The same measure, in the same setting: the result for `CCC/C=C1/c2ccccc2N(CCCNCc2ccccc2)c2c1ccc(C)c2C` [Example 207] reads 15 µM.
Take `CO/N=c1\c2ccccc2n(CCCN)c2c(C)c(C)ccc12` [Example 208, (E,Z)-3,4-Dimethyl-10-(3-aminopropyl)-9-acridoneoxime-O-methyl Ether]: in the assay on RBL-2H3 cells ([3H]-serotonin release, IgE-sensitized RBL-2H3 cells, antigen stimulation, read-out: IC50 (μM) in serotonin liberation from RBL-2H3 cells), the IC50 came to 3 µM.
As to `Cc1ccc2c(=NO)c3ccccc3n(CCCN)c2c1C` [Example 209], the IC50 in the assay with RBL-2H3 cells (setting [1]) came to 15 µM.
Regarding `CCCON=c1c2ccccc2n(CCCN)c2c(C)c(C)ccc12` [Example 211], the IC50 in the assay with RBL-2H3 cells (setting [1]) stood at 10 µM.
The same measure, in the same setting: the value for `Cc1ccc2c(=NOCCc3ccccn3)c3ccccc3n(CCCN)c2c1C` [Example 212] was 6 µM; that for `Cc1ccc2c(=NOCC(=O)O)c3ccccc3n(CCCN)c2c1C` [Example 215] was 3 µM; that for `Cc1ccc2c(=NOCCC(=O)O)c3ccccc3n(CCCN)c2c1C` [Example 216] was 3 µM.
On to `Cc1ccc2c(=NOC(C)C(=O)O)c3ccccc3n(CCCN)c2c1C` (stereo not drawn) [Example 217], for which the IC50 in the assay with RBL-2H3 cells (setting [1]) stood at 2 µM.
Same read-out and setting: the result for `Cc1ccc2c(=NOCc3ccccn3)c3ccccc3n(CCCN)c2c1C` [Example 220] reads 6 µM; that for `Cc1ccc2c(=NOCCCC(=O)N(C)C)c3ccccc3n(CCCN)c2c1C` [Example 222], 10 µM.
On to `Cc1ccc2c(=NOC(C)C)c3ccccc3n(CCCN)c2c1C` [Example 223], for which the IC50 in the assay on RBL-2H3 cells (setting [1]) is 10 µM.
Still for that read-out and setting: the result for `Cc1ccc2c(=NO)c3ccccc3n(CCCNCc3ccccc3)c2c1C` [Example 230] reads 6 µM; that for `CCCON=c1c2ccccc2n(CCCNCc2ccccc2)c2c(C)c(C)ccc12` [Example 232], 10 µM; that for `Cc1ccc2c(=NOCC(=O)O)c3ccccc3n(CCCNCc3ccccc3)c2c1C` [Example 234], less than 3 µM.
With `CCC(ON=c1c2ccccc2n(CCCNCc2ccccc2)c2c(C)c(C)ccc12)C(=O)O` (stereo not drawn) [Example 237], the IC50 with RBL-2H3 cells (setting [1]) came to 10 µM.
Take `Cc1ccc2c(=NOCc3ccccn3)c3ccccc3n(CCCNCc3ccccc3)c2c1C` [Example 240]: the IC50 with RBL-2H3 cells (setting [1]) is 5 µM.
With `Cc1ccc2c(=NOCCc3ccccn3)c3ccccc3n(CCCNCc3ccccc3)c2c1C` [Example 241], in the assay with RBL-2H3 cells (setting [1]), the IC50 turned out to be 4 µM.
With `Cc1ccc2c(=NOCCCC(=O)O)c3ccccc3n(CCCNCc3ccccc3)c2c1C` [Example 242], the IC50 in the assay on RBL-2H3 cells (setting [1]) was determined as 6 µM.
The same measure, in the same setting: the result for `Cc1ccc2c(=NOC(C)C)c3ccccc3n(CCCNCc3ccccc3)c2c1C` [Example 243] reads 6 µM; that for `Cc1ccc2c(=NOCCC(=O)N(C)C)c3ccccc3n(CCCNCc3ccccc3)c2c1C` [Example 244], 3 µM; that for `Cc1ccc2c(=NOCCC(=O)O)c3ccccc3n(CCCNCc3ccccc3O)c2c1C` [Example 247], 10 µM.
Still for that read-out and setting: the result for `Cc1ccc2c(=NOCC(C)(C)C(=O)O)c3ccccc3n(CCCNCc3ccccc3)c2c1C` [Example 248] reads 10 µM.
On to `Cc1ccccc1CNCCCn1c2ccccc2c(=NOCCC(=O)O)c2ccc(C)c(C)c21` [Example 249], for which the IC50 in the assay with RBL-2H3 cells (setting [1]) turned out to be 10 µM.
Same read-out and setting: the result for `Cc1ccc2c(=NOCCC(N)=O)c3ccccc3n(CCCNCc3ccccc3)c2c1C` [Example 251] reads 5 µM; that for `Cc1ccc2c(=NOC(C)C#N)c3ccccc3n(CCCNCc3ccccc3)c2c1C` (stereo not drawn) [Example 253], 10 µM.
The same measure, in the same setting: the result for `Cc1ccc2c(=NOCCC(=O)O)c3ccccc3n(CCCN(C)Cc3ccccc3)c2c1C` [Example 254] reads 12 µM.
Consider `CCON=c1c2ccccc2n(CCCNC(C)c2ccccc2)c2c(C)c(C)ccc12` (stereo not drawn) [Example 255], for which the IC50 in the assay with RBL-2H3 cells (setting [1]) was found to be 8 µM.
On to `Cc1ccc2c(c1C)N(CCCN)c1ccccc1N(C)C2=O` [Example 257], for which the IC50 in the assay with RBL-2H3 cells (setting [1]) was determined as 12 µM.
Same read-out and setting: the result for `Cc1ccc2c(c1C)N(CCCN)c1ccccc1C(=O)N2C` [Example 258] reads 6 µM.
Same read-out and setting: the result for `Cc1ccc2c(c1C)N(CCCNCc1ccccc1)c1ccccc1N(C)C2=O` [Example 259] reads 4 µM; that for `Cc1ccc2c(c1C)N(CCCNCc1ccccc1)c1ccccc1C(=O)N2C` [Example 260], 6 µM; that for `COC(=O)Cc1cccc2c1[S+]([O-])c1ccc(C)c(C)c1N2CCCNCc1ccccc1` (stereo not drawn) [Example 261], 10 µM.
